Patent US7803766B2, “Gastrin compositions and formulations, and methods of use and preparation” (Warath Pharmaceuticals, Inc, priority 2002, dated 2010)
One block for each compound: values may come before it. Where a SMILES comes first, the peptide text is derived from it. [ ]: non-standard residue; d: D form. pGlu = O=C1CC[C@@H](C(=O)O)N1

How the values were obtained:
[1] = cynomolgus monkey, in vivo
[2] = test system: NOD mice with recent onset diabetes; test: Modified and unmodified gastrin in combination with GLP-1 in preventing diabetes progression in NOD mice with recent onset diabetes; format: in vivo; settings: 3 μg/kg/day gastrin equivalent with GLP-1 100 μg/kg/day i.p. daily for 14 days, compared to GLP-1 with native gastrin (Compound B)
Excerpt: In this example, the effect of treatment by a combination of GLP-1 and unmodified gastrin and GLP-1 and modified gastrin compounds/conjugates were examined in NOD mice with recent onset diabetes, to determine whether administration of both GLP-1 and gastrin would prevent severe hyperglycemia as well as increase pancreatic insulin content in NOD mice with recent-onset diabetes. The GLP-1 used was GLP-1 which is the biologically active fragment of human/mouse GLP-1 (having residues at positions 7-36 compared to the precursor from which the fragment is processed; obtained from Bachem H6795). […]
Non-obese diabetic (NOD) female mice, ages 12-14 weeks, were monitored for development of onset of diabetes (fasting blood glucose >8.0 to 15 mmol/l), and within 48 hours after onset of symptoms, four groups of mice were each treated as follows: one group was treated with vehicle only, and the other group was administered 100 μg/kg/day of GLP-1, and the remaining groups were treated with combination of GLP-1 (100 μg/kg/day) and gastrin compound (3 μg/kg/day gastrin equivalent), each treatment administered via the intraperitoneal route daily.
Therapy was administered for 14 days. Animals were monitored weekly for fasting blood glucose (FBG) levels. FBG levels were measured at about 12 hours after food had been withdrawn, and 24 hours after the last peptide or vehicle injection. […]

[3] = in vivo; cited from earlier work

clearance from the bloodstream [1]: rapidly cleared
Compound: CC(C)C[C@H](NC(=O)[C@H](Cc1c[nH]c2ccccc12)NC(=O)CNC(=O)[C@H](Cc1ccc(O)cc1)NC(=O)[C@H](C)NC(=O)[C@H](CCC(=O)O)NC(=O)[C@H](CCC(=O)O)NC(=O)[C@H](CCC(=O)O)NC(=O)[C@H](CCC(=O)O)NC(=O)[C@H](CCC(=O)O)NC(=O)[C@H](CC(C)C)NC(=O)[C@H](Cc1c[nH]c2ccccc12)NC(=O)[C@@H]1CCCN1C(=O)CNC(=O)[C@@H]1CCC(=O)N1)C(=O)N[C@@H](CC(=O)O)C(=O)N[C@@H](Cc1ccccc1)C(N)=O [Compound B] ([pGlu]GPWLEEEEEAYGWLDF-NH2)

Compound: Compound E: N-terminal Cys, gastrin residues 2-17 of SEQ ID NO: 4, no linker (GPWLEEEEEAYGWLDF; N-terminal Cys)
reduction of blood glucose levels [2]: more effecting in reducing blood glucose levels

Compound: Gastrin-17: Native peptide hormone gastrin, 17-residue form (little gastrin or small gastrin)
circulating half-life [3]: 5 to 9 min
